Assay results reported in patent US9303042B2, “Triazolothienopyrimidine compound inhibitors of urea transporters and methods of using inhibitors” (The Regents of the University of California, priority 2012, dated 2016).
Read-outs that look alike come from different tables or passages of the source.

Assays:
[1] = molecular target: T1, UT-B (Mus musculus, UniProt Q8VHL0); assay: Erythrocyte lysis assay of UT-B inhibition; assay type: cell-based; parameters: Screening was performed using mouse erythrocytes, which strongly express UT-B; endogenous in cells; host or cells: erythrocytes in whole blood of wild-type CD1 mice; conditions: read-out: IC50
T1 sequence (Q8VHL0 1-384): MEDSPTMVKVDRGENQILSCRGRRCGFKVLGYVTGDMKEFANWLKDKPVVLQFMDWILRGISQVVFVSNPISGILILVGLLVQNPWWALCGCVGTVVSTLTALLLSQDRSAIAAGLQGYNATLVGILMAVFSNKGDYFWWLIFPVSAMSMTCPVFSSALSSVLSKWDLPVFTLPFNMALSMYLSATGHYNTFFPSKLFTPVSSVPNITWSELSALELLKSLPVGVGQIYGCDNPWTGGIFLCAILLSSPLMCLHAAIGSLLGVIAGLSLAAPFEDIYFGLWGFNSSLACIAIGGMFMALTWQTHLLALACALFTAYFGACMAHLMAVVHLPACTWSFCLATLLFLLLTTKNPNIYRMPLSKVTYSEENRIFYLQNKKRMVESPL
Method: Screening was performed using mouse erythrocytes, which strongly express UT-B and are highly water permeable because the cells also express aquaporin-1 (AQP1) water channels. The screening method involved assay of erythrocyte lysis in response to a large, outwardly directed gradient of acetamide, a urea analog that is transported efficiently by UT-B. A large, outwardly directed gradient of acetamide causes transient cell swelling, but little cell lysis, because UT-B-facilitated acetamide efflux limits water influx (see FIG. 1A). UT-B inhibition prevents acetamide efflux, allowing unopposed cell swelling and consequent cell lysis, which was recorded by reduced near-infrared light absorption at 710 nm.
Primary screening was done using a collection of 100,000 diverse, drug-like compounds from commercial sources (ChemDiv, San Diego, Calif.; Asinex, Winston-Salem, N.C.). […] Vigorous mixing was achieved by repeated pipetting. Erythrocyte lysis was quantified by absorbance at 710 nm wavelength, made within 5 min after hypo-osmolar shock. […] For analysis of structure-activity relationships >900 commercially available analogs (ChemDiv and Asinex) were tested.

[2] = In vitro metabolic stability in hepatic microsomes; assay type: in vitro ADME, rat; conditions: for % Remaining after 10 min incubation with liver microsomes: NADPH, compound 5 μM; for % Remaining: parent molecule after 30 min incubation with rat liver microsomes; for metabolic stability (in words): hepatic microsomes
Method: Compounds, each at 5 μM, were incubated for specified times at 37° C. with rat liver microsomes (1 mg protein/ml; Sigma-Aldrich, St. Louis, Mo.) in potassium phosphate buffer (100 mM) containing 1 mM NADPH. The mixture was then chilled on ice, and 0.5 ml of ice-cold ethyl acetate was added.

[3] = Table 1, commercially available analogues, erythrocyte lysis assay
[4] = Table 2, synthesized inhibitors, red blood cell lysis assay (n = 3), single-site saturation model

| Compound | IC50 [1, 3] [nM] | % Remaining after 10 min incubation with liver microsomes [2] [%] | IC50 ([1]; erythrocyte lysis assay) [nM] | IC50 [1, 4] [nM] | % Remaining [2] [%] | metabolic stability (in words) [2] |
| --- | --- | --- | --- | --- | --- | --- |
| CCc1ccc(S(=O)(=O)c2nnn3c2nc(NCC2CCCO2)c2sccc23)cc1 (centres unmarked) [Compound 2bu, tetrahydrofuran-2-ylmethyl-[3-(4-ethyl-benzenesulfonyl)-thieno[2,3-e][1,2,3]triazolo[1,5-a]pyrimidin-5-yl]-amine] | 891 | 26 |  |  |  |  |
| CCc1ccc(S(=O)(=O)c2nnn3c2nc(NCCC(C)C)c2sccc23)cc1 [Compound 2bv] | 662 | 59 |  |  |  |  |
| CCc1ccc(S(=O)(=O)c2nnn3c2nc(NC(C)c2ccccc2)c2sccc23)cc1 (centres unmarked) [Compound 2bw, [3-(4-ethyl-benzenesulfonyl)-thieno[2,3-e][1,2,3]triazolo[1,5-a]pyrimidin-5-yl]-(1-phenyl-1-methyl)methyl-amine] | 585 | 34 |  |  |  |  |
| CCc1ccc(S(=O)(=O)c2nnn3c2nc(NCc2cccc(OC)c2)c2sccc23)cc1 [Compound 2bx, [3-(4-ethyl-benzenesulfonyl)-thieno[2,3-e][1,2,3]triazolo[1,5-a]pyrimidin-5-yl]-(3-methoxy-benzyl)-amine] | 291 | <2 |  |  |  |  |
| CCc1ccc(S(=O)(=O)c2nnn3c2nc(NCCOC)c2sccc23)cc1 [Compound 2by, {3-[4-ethyl-benzenesulfonyl]-thieno[2,3-e][1,2,3]triazolo[1,5-a]pyrimidin-5-yl}-2-methoxyethyl-amine] | 334 | <2 |  |  |  |  |
| CCc1ccc(S(=O)(=O)c2nnn3c2nc(NCc2ccc(F)cc2)c2sccc23)cc1 [Compound 2ca, [3-(4-ethyl-benzenesulfonyl)-thieno[2,3-e][1,2,3]triazolo[1,5-a]pyrimidin-5-yl]-(4-fluoro-benzyl)-amine] | 384 | 41 |  |  |  |  |
| CCc1ccc(S(=O)(=O)c2nnn3c2nc(NCCCOC)c2sccc23)cc1 [Compound 2cb, {3-[4-ethyl-benzenesulfonyl]-thieno[2,3-e][1,2,3]triazolo[1,5-a]pyrimidin-5-yl}-3-methoxypropyl-amine] |  | <2 | 212 |  |  |  |
| CCc1ccc(S(=O)(=O)c2nnn3c2nc(NC(C)C)c2sccc23)cc1 [Compound 2ce] | 948 | 4 |  |  |  |  |
| CCc1ccc(S(=O)(=O)c2nnn3c2nc(NCCCOC(C)C)c2sccc23)cc1 [Compound 2cf, {3-[4-ethyl-benzenesulfonyl]-thieno[2,3-e][1,2,3]triazolo[1,5-a]pyrimidin-5-yl}-3-(1-methylethoxyl)propyl-amine] | 433 | <2 |  |  |  |  |
| CCc1ccc(S(=O)(=O)c2nnn3c2nc(NCCCN2CCCC2=O)c2sccc23)cc1 [Compound 2cg] | 1500 | 2 |  |  |  |  |
| Cc1ccc(C)c(S(=O)(=O)c2nnn3c2nc(NCCC(C)C)c2sccc23)c1 [Compound 2cj] | 1450 | 61 |  |  |  |  |
| CCCCNc1nc2c(S(=O)(=O)c3cc(C)ccc3C)nnn2c2ccsc12 [Compound 2cn] | 865 | 57 |  |  |  |  |
| COCCNc1nc2c(S(=O)(=O)c3cc(C)ccc3C)nnn2c2ccsc12 [Compound 2co, {3-[2,5-dimethyl-benzenesulfonyl]-thieno[2,3-e][1,2,3]triazolo[1,5-a]pyrimidin-5-yl}-2-methoxyethyl-amine] | 1190 | 29 |  |  |  |  |
| COCCCNc1nc2c(S(=O)(=O)c3cc(C)ccc3C)nnn2c2ccsc12 [Compound 2cr, {3-[2,5-dimethyl-benzenesulfonyl]-thieno[2,3-e][1,2,3]triazolo[1,5-a]pyrimidin-5-yl}-3-methoxypropyl-amine] | 1400 | 26 |  |  |  |  |
| COCCNc1nc2c(S(=O)(=O)c3ccc(Br)cc3)nnn2c2ccsc12 [Compound 2ct] | 959 | 53 |  |  |  |  |
| CCCCNc1nc2c(S(=O)(=O)c3ccc(Br)cc3)nnn2c2ccsc12 [Compound 2cu] | 1900 | 76 |  |  |  |  |
| CC(C)c1ccc(S(=O)(=O)c2nnn3c2nc(NCc2cccs2)c2sccc23)cc1 [Compound 3a, [3-(4-Isopropylbenzenesulfonyl)-thieno[2,3-e][1,2,3]triazolo[1,5-a]pyrimidin-5-yl]-thiophen-2-ylmethyl-amine] | 125 |  |  | 153 | <5 |  |
| CC(C)c1ccc(S(=O)(=O)c2nnn3c2nc(NCc2ccco2)c2sccc23)cc1 [Compound 3b, Furan-2-ylmethyl-[3-(4-isopropyl-benzenesulfonyl)-thieno[2,3-e][1,2,3]triazolo[1,5-a]pyrimidin-5-yl]-amine] |  |  |  | 16600 | >99 |  |
| O=S(=O)(c1ccc(C(F)(F)F)cc1)c1nnn2c1nc(NCc1cccs1)c1sccc12 [Compound 3c, Thiophen-2-ylmethyl-[3-(4-trifluoromethyl-benzenesulfonyl)-thieno[2,3-e][1,2,3]triazolo[1,5-a]pyrimidin-5-yl]-amine] |  |  |  | 537 | 99 | improved metabolic stability |
| O=S(=O)(c1ccc(OC(F)(F)F)cc1)c1nnn2c1nc(NCc1cccs1)c1sccc12 [Compound 3d, Thiophen-2-ylmethyl-[3-(4-trifluoromethoxy-benzenesulfonyl)-thieno[2,3-e][1,2,3]triazolo[1,5-a]pyrimidin-5-yl]-amine] |  |  |  | 1120 | 95 | improved metabolic stability |
| COc1ccc(CNc2nc3c(S(=O)(=O)c4ccc(C(C)C)cc4)nnn3c3ccsc23)cc1 [Compound 3e, [3-(4-Isopropyl-benzenesulfonyl)-thieno[2,3-e][1,2,3]triazolo[1,5-a]pyrimidin-5-yl]-(4-methoxy-benzyl)-amine] |  |  |  | 5290 | 7 |  |
| COc1ccc(S(=O)(=O)c2nnn3c2nc(NCc2cccs2)c2sccc23)cc1 [Compound 3f, [3-(4-Methoxy-benzenesulfonyl)-thieno[2,3-e][1,2,3]triazolo[1,5-a]pyrimidin-5-yl]-thiophen-2-ylmethyl-amine] |  |  |  | 104 | 6 |  |
| O=S(=O)(c1cccs1)c1nnn2c1nc(NCc1cccs1)c1sccc12 [Compound 3g, [3-(Thiophene-2-sulfonyl)-thieno[2,3-e][1,2,3]triazolo[1,5-a]pyrimidin-5-yl]-thiophen-2-ylmethyl-amine] |  |  |  | 196 | <5 |  |
| O=S(=O)(c1ccc(F)cc1)c1nnn2c1nc(NCc1cccs1)c1sccc12 [Compound 3h, [3-(4-Fluoro-benzenesulfonyl)-thieno[2,3-e][1,2,3]triazolo[1,5-a]pyrimidin-5-yl]-thiophen-2-ylmethyl-amine] |  |  |  | 468 | 27 |  |
| O=S(=O)(c1ccc(Br)cc1)c1nnn2c1nc(NCc1cccs1)c1sccc12 [Compound 3i, [3-(4-Bromo-benzenesulfonyl)-thieno[2,3-e][1,2,3]triazolo[1,5-a]pyrimidin-5-yl]-thiophen-2-ylmethyl-amine] |  |  |  | 32 | 60 | improved metabolic stability |
| CC(C)c1ccc(S(=O)(=O)c2nnn3c2nc(NCc2cccc4ccccc24)c2sccc23)cc1 [Compound 3j, [3-(4-Isopropyl-benzenesulfonyl)-thieno[2,3-e][1,2,3]triazolo[1,5-a]pyrimidin-5-yl]-naphthalen-1-ylmethyl-amine] |  |  |  | > 2500 | 45 |  |
